{"source": "patent US10442767B2", "about": "(priority 2012, dated 2019)", "key": {"C57Bl/6J mice": {"tested_on": "C57Bl/6J mice", "assay": "In vivo effects (tremor, seizures) after intraperitoneal injection", "parameters": "species or system mouse", "conditions": "i.p.; for Effect: N = 5", "procedure": "A consequence of excessive K^+ channel blockage is the advent of seizures. 4-AP is known to cause seizures in mice at high doses.\nAt high doses, 4-AP causes tremors, muscle spasms and seizures.\n10-week-old female C57Bl/6J mice were given an intraperitoneal injection of the drug under investigation and monitored continuously for 4 h. After 4 h no signs of drug effects could be observed. At least 72 h passed between injections to the same mice."}, "[1]": {"assay": "Parallel Artificial Membrane Permeability Assay (PAMPA)", "type": "in vitro ADME", "procedure": "In this experiment, the inventors included highly permeable verapamil and lowly permeable theophylline as controls.\nPermeability studies were performed as previously described by Sugano, et al., 2011. A 96-well microplate (acceptor compartment) was filled with PBS containing 5% DMSO. A hydrophobic filter plate (donor compartment) was placed atop the buffer-filled plate and the filter surface was impregnated with 5 μL solution of porcine polar brain lipids (Avanti Lipids) in dodecane (1% w/v). 150 μL of the test compounds dissolved in PBS containing 5% DMSO (compound concentration 0.5 mM) was added to the donor compartment and covered. The only barrier between the two compartments was the artificial BBB membrane containing the porcine polar brain lipids. The whole system was incubated for several hours."}, "[2]": {"assay": "Pharmacokinetic study after single intravenous dose", "type": "in vivo, mice (CD-1)", "conditions": "female, CD-1, mouse, mice, i.v. 0.75 mg/kg", "procedure": "39 mice (CD-1, 6-weeks old, female) were used in the study. […] The drugs were dissolved in PBS and administered via tail-vein injection to achieve a dose of 0.75 mg/kg of body weight. At specific times post injection (10 min, 30 min, 1 h, 2 h, 4 h and 24 h) blood and brain samples were collected. Blood samples were transferred into tubes containing 5% EDTA, stored on ice, and centrifuged (4° C., 1000 rpm, 15 min). Plasma (upper phase) was transferred to a new tube and stored at −80° C. for further analysis. Brain tissue samples were collected after intracardial perfusion of the mouse. Brain tissue samples were stored at −80° C. for further analysis. Drug quantification in plasma: Briefly, to a 1.5 mL Eppendorf tube containing 50 μl of plasma, 200 μl of ice-cold acetonitrile containing 1,000 ng/ml Progesterone (used as internal standard) was added in order to precipitate the proteins. The sample was vortexed, mixed and centrifuged at 4000×g for 10 min at 4° C. to remove precipitates. 140 μl supernatant was collected and transferred to a 500 μl 96-well polypropylene plate and covered using silicone plate mat. 40 μl of sample was injected in into LC-MS. Using the same sample preparation procedure 11 standard solutions ranging from 50 ng/mL to 100 μg/mL were prepared, analyzed by LC-MS and used as a calibration curve to correlate peak area of the samples to concentration. Drug quantification in brain: the mouse brain was weighted and 1 mL of water per 400 mg of tissue was added. The sample was homogenized using an electric tissue homogenizer. To a 1.5 mL Eppendorf tube containing 50 μl of homogenized sample, 200 μl of ice-cold acetonitrile containing 1000 ng/ml Demeclocycline (used as internal standard) was added in order to precipitate the proteins. The sample was vortexed, mixed and centrifuged at 4000×g for 10 min at 4° C. to remove precipitates. 140 μl supernatant was collected and transferred to a 500 μl 96-well polypropylene plate and covered using silicone plate mat. 40 μl of each sample was injected into LC-MS. Using the same sample preparation procedure 11 standard solutions ranging from 50 ng/mL to 100 μg/mL were prepared, analyzed by LC-MS and used as a calibration curve to correlate peak area of the samples to concentration.\nThe Hill equation used to fit the data from the voltage-clamp and the optic nerve experiments was as follows: y=y0+(yf−y0)*x^n/(k^n+x^n); where n refers to the Hill coefficient (typically 1±0.1) and k refers to EC50 or IC50. y0 and yf refers to the origin and final ordinate values and were fixed at 1±0.1 or 0±0.1 depending on the experiment. EC50=10^<log EC50>; where <log EC50>=average of log EC50 values from all experiments with the same drug. 95% C.I.=[Upper Limit . . . Lower Limit]; where U.L.=10^(log EC50+s.d.) and L.L.=10^(log EC50−s.d.). The half-life (t1/2) in the stability and pharmacokinetic experiments was calculated by fitting the data to the equation Ct=C0*exp(−k*t) where C0=initial concentration, Ct=concentration at time t, and k=ln 2/t1/2. Student t-test was used to compare results and P<0.05 was considered significant."}}, "note": "Read-outs that look alike come from different tables or passages of the source.", "data": [{"compound": "Nc1ccncc1F", "note": "[3-F-4-AP, 3-fluoro-4-aminopyridine]", "values": [{"measurement": "Effect", "setting": "C57Bl/6J mice; 30 μmol/kg", "result": "Mouse quiet"}, {"measurement": "Effect", "setting": "C57Bl/6J mice; 60 μmol/kg", "result": "Mild tremor, mouse quiet"}, {"measurement": "duration of effect (tremors, seizures or jerks)", "setting": "C57Bl/6J mice; 90 μmol/kg", "result": "~30", "unit": "min"}, {"measurement": "mice died of seizure", "setting": "C57Bl/6J mice; 90 μmol/kg", "result": "1 of 5 mice died of seizure"}, {"measurement": "start of tremors and seizures post-injection", "setting": "C57Bl/6J mice; 90 μmol/kg (highest dose)", "result": 10, "unit": "s"}, {"measurement": "Effect", "setting": "C57Bl/6J mice; 90 μmol/kg", "result": "Severe tremors and seizures that start"}, {"measurement": "in vivo potency compared with 4-AP", "setting": "C57Bl/6J mice; mice", "result": "very similar potency to that of 4-AP"}, {"measurement": "times more permeable than 4-AP", "setting": "[1]", "result": 6.6, "unit": "times"}, {"measurement": "Pe: permeability coefficient across artificial membrane", "setting": "[1]; porcine polar brain lipids, 0.5 mM, 16 h, n=3", "result": "1.56 ± 0.06", "unit": "×10⁻⁶ cm/s"}, {"measurement": "Kp", "setting": "[2]; brain and plasma, read-out: Cbrain/Cplasma (maximum in the brain over maximum in plasma)", "result": "0.214 ± 0.17"}, {"measurement": "half-life", "setting": "[2]; brain, read-out: half-life in brain (converted)", "result": 85.8, "unit": "min"}, {"measurement": "half-life", "setting": "[2]; plasma, read-out: half-life in plasma (converted)", "result": 20.4, "unit": "min"}]}]}
